Read-outs that look alike come from different tables or passages of the source.
Columns and labels:
[1] = tested on: Carbapenem-resistant Acinetobacter baumannii (CRAB, Acinetobacter baumannii); assay: Test Example 2: antibacterial activity test (MIC); format: cell-based; conditions: ID-CAMHB, read-out: ID-CAMHB, MIC
Procedure: (§1) 1. The test compounds were dissolved in sterile normal saline, vortexed for uniformly mixing, and diluted in a 2-fold dilution with the sterile normal saline (11 concentration points in total). The test concentration range was 32-0.031 μg/mL, and two duplicate wells were set for each concentration. Additional wells without drug dosing were set as growth controls. 2. 4 μL of the diluent was added to 196 μL of the bacterial suspension in a 96-well plate (the bacterial count in the bacterial suspension was 2-8×10^5 colony forming units/mL). 3.
(§2) The minimum inhibitory concentration (MIC) assay was performed with reference to the Clinical and Laboratory Standards Institute (CLSI) guidelines.

[2] = tested on: Carbapenem-resistant Enterobacteriaceae (CRE, Klebsiella pneumoniae); assay: Test Example 2: antibacterial activity test (MIC); format: cell-based; conditions: ID-CAMHB, read-out: ID-CAMHB, MIC
Procedure: as §1, §2

[3] = tested on: Carbapenem-resistant Pseudomonas aeruginosa (CRPA, Pseudomonas aeruginosa); assay: Test Example 2: antibacterial activity test (MIC); format: cell-based; conditions: ID-CAMHB, read-out: ID-CAMHB, MIC
Procedure: as §1, §2

[4] = tested on: Control Strain Pseudomonas aeruginosa ATCC 27853; assay: Test Example 2: antibacterial activity test (MIC); format: cell-based; conditions: ATCC27853, ID-CAMHB, ATCC 27853, read-out: ID-CAMHB, MIC
Procedure: as §1, §2

[5] = tested on: Control strain Escherichia coli ATCC 25922; assay: Test Example 2: antibacterial activity test (MIC); format: cell-based; conditions: ATCC25922, ID-CAMHB, ATCC 25922, read-out: ID-CAMHB, MIC
Procedure: as §1, §2

[6] = Test Example 3: pharmacokinetic study in cynomolgus monkeys; format: in vivo; conditions: cynomolgus monkey, plasma, 10 mg/kg single intravenous infusion, individual animals
Procedure: An appropriate amount of a test compound was weighed precisely and added to a container, and 0.9% sodium chloride injection and 0.2 M NaOH solution were added thereto in an ice bath until the test compound was completely dissolved, so that a sample solution at a concentration of 2 mg/mL was obtained followed by storage at 2-8° C. for later use.
Species and strain: cynomolgus monkey Animal grade: general grade Animal source: Guangxi Xiongsen Primate Experimental Animal Breeding Development Co., Ltd. Number of the using of laboratory animal: SYXK (Su) 2019-0012
6 cynomolgus monkeys (half male and half female) were selected and randomly divided into 3 groups with 1 animal/sex in each group. The cynomolgus monkeys were administered with the test sample at a dose of 10 mg/kg by the single intravenous infusion. Blood samples were collected from each group of animals at the following time points: before administration, and 5 min, 15 min, 0.5 h, 1 h, 2 h, 4 h, 6 h, and 8 h after administration. In the test, the concentration of each test compound in the plasma of the cynomolgus monkey was detected by the LC-MS/MS method, and the lower limit of quantification of the analysis methods for the plasma samples were all 1 μg/mL. The plasma concentration data were analyzed by the non-compartmental analysis (NCA) of the analysis software for pharmacokinetic data, WinNonlin, pharmacokinetic parameters were calculated, and pharmacokinetic characteristics of the test compounds in cynomolgus monkeys after administration were investigated, with the results shown in the following table

[7] = both sexes, cynomolgus, iv, 10 mg/kg

CC(C)(O/N=C(\C(=O)N[C@@H]1C(=O)N2C(C(=O)O)=C(C[N+]3(CCN(CCCNC(=O)c4ccc(O)c(O)c4Cl)C(=O)c4ccc(O)c(O)c4Cl)CCCC3)CS[C@H]12)c1csc(N)n1)C(=O)O [Compound 10]
MIC ([1]; FDA-CDC AR-BANK #0036 (strB, OXA-65, OXA-24, strA, sul2)): 0.125 mg/L | MIC ([1]; FDA-CDC AR-BANK #0052 (OXA-58, OXA-100, sul2)): 0.0625 mg/L | MIC ([1]; FDA-CDC AR-BANK #0063 (OXA-23, OXA-65, OXA-24, sul2)): > 32 mg/L | MIC ([1]; FDA-CDC AR-BANK #0070 (OXA-58, OXA-100, sul2)): 0.125 mg/L | MIC ([1]; FDA-CDC AR-BANK #0101 (strB, OXA-65, OXA-24, strA, sul2)): 0.5 mg/L | MIC ([2]; FDA-CDC AR-BANK #0361 (TEM-1; SHV-12; KPC-2)): 0.25 mg/L | MIC ([2]; FDA-CDC AR-BANK #0363 (TEM-1; SHV-12; KPC-2)): 0.125 mg/L | MIC ([2]; FDA-CDC AR-BANK #0438 (aph(3′)-Ia, dfrA12, KPC-3, OmpK35, oqxA, oqxB, SHV-11)): 0.5 mg/L | MIC ([2]; FDA-CDC AR-BANK #0453 (KPC-3, OmpK35, oqxA, oqxB, SHV-11, TEM-1B)): 2 mg/L | MIC ([3]; FDA-CDC AR-BANK #0439 (aac(6′)-Il, aadA1b, BCR1, IMP-18, OXA-50)): 0.25 mg/L | MIC ([3]; FDA-CDC AR-BANK #0441 (KPC-2)): 1 mg/L | MIC ([3]; FDA-CDC AR-BANK #0444 (aac(6′)-Il, dfrB5, OXA-4, tet(G), VIM-2)): 16 mg/L | MIC ([3]; FDA-CDC AR-BANK #0457 (aadA6, VIM-2)): 0.0625 mg/L | MIC [4]: 0.0625 mg/L | MIC [5]: 0.0625 mg/L | AUC(0-inf) [6, 7]: 32.9 µg·h/mL | AUC(0-t) [6, 7]: 29.3 µg·h/mL | clearance [6, 7]: 0.304 L/h/kg | half-life [6, 7]: 37.2 min | Cmax ([6]; both sexes, cynomolgus, iv, 10 mg/kg, read-out: Cmax): 35.5 µg/mL | MRT ([6]; both sexes, cynomolgus, iv, 10 mg/kg, read-out: MRT): 38.4 min | Vd ([6]; both sexes, cynomolgus, iv, 10 mg/kg, read-out: Vd): 0.27 L/kg | Tmax ([6]; both sexes): 4.8 min | AUC last ([6]; 10 mg/kg): 23.44 µg·h/mL | AUCinf ([6]; 10 mg/kg): 25.64 µg·h/mL | CL ([6]; 10 mg/kg): 0.39001 L/h/kg | Cmax ([6]; 10 mg/kg): 30.64 µg/mL | MRT ([6]; 10 mg/kg): 37.2 min | Vd ([6]; 10 mg/kg): 0.31334 L/kg | t1/2 ([6]; 10 mg/kg): 33.6 min

From patent US20230121689A1, “CEPHALOSPORIN ANTIBACTERIAL COMPOUND AND PHARMACEUTICAL APPLICATION THEREOF” (priority 2020, published 2023)
